Results on one molecule are retold here after patent US20250312291A1, “DIARYLHEPTANOID BASED MEDICINAL PREPARATION AND METHOD OF PREPARATION OF THE SAME” (ARJUNA NATURAL PRIVATE LIMITED, priority 2022, published 2025).

This experiment concerns Amphistome ova. In words: Deworming in cows positive for Amphistome ova (ova checked from dung matter). The settings on record: before treatment (baseline). Format: in vivo. The source says: In one embodiment efficacy of diarylheptanoid metal complex on deworming in cows was studied. Cows positive for Amphistome ova were selected and treated with diarylheptanoid metal complex. Deworming in cows is important for several reasons. First, internal parasites or worms can cause significant harm to cow health and productivity. These parasites can cause damage to the cow's gastrointestinal tract, leading to reduced feed intake, weight loss, and poor growth rates. In severe cases, internal parasites can even lead to death. Second, internal parasites can also have economic impacts on the farm. Infected cows may have reduced milk production and lower-quality meat, which can lead to financial losses for the farmer. Third, internal parasites can also be a source of infection for other animals on the farm. Some parasites can be passed from cow to cow or from cow to other species such as sheep or goats. After 30 days of treatment with diarylheptanoid calcium complex, the number of Ova in the dung matter is nil compared to untreated control.
Twenty cows that were positive for Amphistome ova were selected for this study. Cows were grouped into four groups with 5 cows in each group. Cows were segregated as follows.
Before and after 30 days of treatment ova was checked from the dung matter.

For the molecule `CCCSc1ccc2nc(NC(=O)OC)[nH]c2c1` [Albendazole], the “Ova Before” value is recorded as “+ + + + +”.
